Source: US20090197853A1, “METHODS AND COMPOSITIONS OF TREATING CANCER” (priority 2005, published 2009)

Columns and labels:
[1] = system: metallothionein gene family members and ZnT1; experiment: Northern blot analysis, PC3 cultures; assay type: cell-based; conditions: PC3, 4 hours
Procedure: Methods: Northern Blot Analysis—Plateau phase cultures of A549 cells were prepared as described above, except that T-25 flasks were used, and the number of cells initially plated scaled accordingly. Cultures were treated with 50 μM MGd, 5 μM Gd(OAc)3 or 5% mannitol for 4 hours, whereupon cultures were washed twice with PBS and RNA harvested as above. Alternatively, 7-day plateau phase A549 or PC3 cultures were treated with 50 μM MGd, 50-100 μM Zn(OAc)2, 50 μM CdCl2 or 5% mannitol for 24 hours (A549) or 4 hours (PC3) prior to washing and RNA analysis. Exponential phase Ramos cultures were treated for 6 hours. Northern blots were conducted and analyzed. Radio labeled metallothionein probe, designed to bind to a 113-bp region of 3′-UTR sequences from multiple metallothionein gene family members, was generated using 5′-[…]-3′ (forward) and 5′-[…]-3′ (reverse) PCR primers and the NEBlot kit (New England Biolabs, Inc.). Radio labeled ZnT1 probe was generated in a similar fashion using 5′-[…]-3′ (forward) and 5′-[…]-3′ (reverse) primers.

[2] = HPLC analysis of MGd stability in medium from plateau phase cultures; assay type: physicochemical; conditions: after 24 hours
Procedure: Results: Studies were performed to determine whether the metallothionein transcript up-regulation observed in the microarray analysis could be a consequence of free gadolinium(III) cation, released from MGd into the cell culture medium. […] Since the microarray analysis indicated strong transcript up-regulation after 4 hours of treatment with drug, this time interval was selected for further investigation of RNA transcript levels. RNA was harvested from plateau phase cultures treated with control vehicle, 50 μM MGd, or 5 μM Gd(OAc)3 for 4 hours. […] Thus, even assuming a 10% loss of drug over the initial 4 hour incubation period, the resulting release of Gd(III) ion into the culture medium would be insufficient to induce the observed metallothionein and ZnT1 transcript levels.

A549 cells [3] = experiment: Proliferation (tetrazole reduction/MTT), A549; assay type: cell-based, human; conditions: for A549 cell proliferation: exponential phase, 24 hours treatment plus 48 hr growth, zinc up to 100 μM
Procedure: (§1) Methods: The proliferation of exponential phase cultures was assessed by colorimetric assay. In brief, 2×10^5 suspension cells per well were seeded on 96-well V-bottom microtiter plates. Stock solutions of control vehicle, MGd or Zn(OAc)2 in medium were added and plates were incubated at 37° C. under a 5% CO2/95% air atmosphere. After 24 hours, medium was replaced with fresh medium. After 2 additional days, medium was exchanged with fresh medium (150 μL/well) supplemented with 3-(4,5-dimethylthiazol-2-yl)-2,5-diphenyltetrazolium bromide (MTT, 0.5 mg/mL, Sigma Biochemical, St. Louis, Mo.). Plates were incubated at 37° C. and viable cells measured.

PC3 cells = experiment: Proliferation, PC3; assay type: cell-based
Procedure: as §1

[4] = system: Ramos B-cell lymphoma cells; experiment: Proliferation, Ramos; assay type: cell-based; conditions: 50 μM zinc
Procedure: as §1
as §1, with “Cellular Proliferation—The” for “Methods: The”

Ramos cells [5] = experiment: Mitochondrial membrane potential (JC-1), Ramos; assay type: cell-based; conditions: single agent alone
Procedure: Mitchondrial membrane potential. Loss of the mitochondrial membrane potential (ΔΨm) of cells was measured by the use of JC-1 (Molecular Probes, Inc., Eugene, Oreg.). Cells undergoing early apoptosis lose fluorescence in the 585 nm channel and gain it in the 530 nm channel. Briefly, cells cultured as described above were washed twice with complete medium, re-suspended in 0.5 mL JC-1 solution (10 μg/mL in complete medium), and incubated at 37° C. for 15 minutes. Cells were isolated by centrifugation, washed once and then re-suspended in 0.5 mL solution of 0.5% BSA in PBS and assayed immediately on the flow cytometer.

Ramos cells [6] = experiment: Gene expression profiling on Human Genome U133 Plus 2.0 Arrays, Ramos cultures; assay type: cell-based; conditions: 4 hours
Procedure: Methods: Gene Expression Profiling—MGd (10 μM), Zn(OAc)2 (25 or 50 μM, the combinations, or control (5% mannitol) solution were added to Ramos cultures. Each treatment was performed in triplicate. After 4 hours of incubation, all cultures were washed twice with 0.5% BSA in HBSS and total RNA was isolated and subjected to analysis on Human Genome U133 Plus 2.0 Arrays (Affymetrix, Santa Clara, Calif.). Microarray Suite version 5.0 software (Affymetrix) was used to generate raw gene expression scores and normalize the relative hybridization signal from each experiment. All gene expression scores were set to a minimum value of fifty in order to minimize noise associated with less robust measurements of rare transcripts. Both the parametric Student's t-test and the permutation-based significance analysis of microarrays (SAM) were used to determine genes differentially expressed in treatment versus control groups.

A549 cells [7] = system: A549 cells
Procedure: Methods: Cellular Viability. Cell viability was determined by using propidium iodide (PI) flow cytometric analysis. Cells from plateau phase cultures grown in T-25 flasks were harvested as described above, except that cells present in the growth medium and wash solution were isolated by centrifugation and included in the analysis. Cells were resuspended in 1 mL PBS, an aliquot of 3×10^5 cells transferred to a 4 mL tube, and the cells isolated by centrifugation. Cell pellets were resuspended in PBS supplemented with 2 μg/mL propidium iodide (Sigma), incubated for 5 minutes at ambient temperature, and subjected to flow cytometric analysis. Flow cytometry was performed on a FACSCalibur instrument and data were analyzed using the CellQuest Pro software package (BD Biosciences).

[8] = system: PC3 prostate cancer cells; experiment: Cell viability by propidium iodide exclusion, PC3; assay type: cell-based
Procedure: Methods: Cellular Viability—Cell viability was determined by using propidium iodide (PI) flow cytometric analysis. Cells from plateau phase cultures grown in T-25 flasks were harvested as described above, except that cells present in the growth medium and wash solution were isolated by centrifugation and included in the analysis. Cells were resuspended in 1 mL PBS, an aliquot of 3×10^5 cells transferred to a 4 mL tube, and the cells isolated by centrifugation. Cell pellets were resuspended in PBS supplemented with 2 μg/mL propidium iodide (Sigma), incubated for 5 minutes at ambient temperature, and subjected to flow cytometric analysis.

Thioredoxin reductase = conditions: plateau phase PC3 cultures
Procedure: Methods: Lipoate Reduction. Thioredoxin reductase activity was assessed by measuring the rate of lipoate reduction. In brief, A549 or PC3 cells (10,000 cells/well) were plated on 96-well plates and allowed to adhere overnight and grow two additional days until confluent. Cells were treated with MGd, zinc, or 5% mannitol for 2-4 hours, as indicated. Medium was removed, cells were washed with Hanks Balanced Salt Solution (HBSS), and a solution of 5 mM lipoic acid and 1 mM 5,5′-dithiobis(2-nitrobenzoic acid) in HBSS (100 μL/well) was added. Plates were incubated at ambient temperature in the dark. At chosen time intervals, plate absorbance was measured at 405-650 nm. Plate absorbances were normalized to wells containing neither exogenous zinc nor texaphyrin complex to allow plate-to-plate comparison. In some experiments, L-buthionine-[S,R]-sulfoximine (BSO, 100 μM) was added 24 hours prior to MGd or zinc treatment, to inhibit any contribution to lipoate reduction made by glutathione-dependent pathways (28). Actinomycin D (2.5 μg/mL) or cycloheximide (10 μg/mL), where present, was added 1 hour prior to texaphyrin or zinc treatment. Viability was checked on parallel plates using the tetrazolium dye 3-(4,5-dimethylthiazol-2-yl)-5-(3-carboxymethoxyphenyl)-2-(4-sulfophenyl)-2H-tetrazolium (MTS) following the manufacturers protocol (Promega Corp.).

[9] = system: acute promyelocytic leukemia line (HL60); conditions: 50 to 100 μM zinc
Procedure: as §1, with “Cellular Proliferation—The” for “Methods: The”

Compound | Expression of metallothionein family members and ZnT1 [1] | Apparent loss of drug in medium (HPLC) [2] | Effect of MGd on the anti-proliferative activity of zinc (A549 cells [3]; A549, all MGd concentrations tested) | A549 cell proliferation (A549 cells [3]) | Effect of MGd on the effect of zinc on proliferation (PC3 cells; PC3) | Cellular proliferation [4] | JC-1 fluorescence (Ramos cells [5]) | MTF-1 regulated genes incl. metallothionein and zinc transporter family transcripts (Ramos cells [6]) | Effect of MGd on the cytotoxicity of Zn(OAc)2 (A549 cells [7]) | Increased cell death (propidium iodide exclusion) ([8]; PC3, within 48 hr, at 100 μM zinc) | Cell viability ([8]; plateau phase PC3, after 24 hr) | PC3 cell proliferation (PC3 cells) | Lipoate reduction (Thioredoxin reductase) | Proliferation [9]
CC(=O)[O-].CC(=O)[O-].CCc1c(CC)c2cc3nc(cnc4cc(OCCOCCOCCOC)c(OCCOCCOCCOC)cc4ncc4nc(cc1[n-]2)C(CCCO)=C4C)C(C)=C3CCCO.O.[Gd+3] [MGd, Motexafin gadolinium] | increased | 4% | enhanced the anti-proliferative activity of zinc | no effect on proliferation | enhanced the effect of zinc | without effect | No significant change | up-regulation of MTF-1 regulated genes | potentiated | – | – | – | – | –
CC(=O)[O-].CC(=O)[O-].[Zn+2] [Zn(OAc)2, Zinc acetate] | – | – | – | modestly inhibited | – | without effect | No significant change | – | – | 2 fold | little effect on cell viability | inhibited | inhibited at lower concentrations of zinc | but not in an acute promyelocytic leukemia line (HL60)
